Reference: PubChem BioAssay (NCI)
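Briefly, cells in 96-well plates were exposed to five compound concentrations for 48 h, and endpoints were estimated by linear interpolation. GI50 = concentration required for 50% inhibition of growth. TGI marks complete inhibition of growth.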

Columns and labels:
Experiment in all cases: growth of human tumour cells (NCI), 48 h
[1] = system: M14 melanoma
[2] = system: MDA-MB-231 breast
[3] = system: HCC-2998 colon
[4] = system: MDA-MB-435
[5] = system: K-562 leukemia
[6] = system: HS 578T breast
[7] = system: SN12C renal
[8] = system: SK-OV-3 ovarian
[9] = system: MALME-3M melanoma
[10] = system: OVCAR-8 ovarian

Row | Structure (SMILES) | GI50 [1] [µM] | TGI [1] [µM] | GI50 [2] [µM] | TGI [2] [µM] | GI50 [3] [µM] | TGI [3] [µM] | GI50 [4] [µM] | TGI [4] [µM] | GI50 [5] [µM] | TGI [5] [µM] | GI50 [6] [µM] | TGI [6] [µM] | GI50 [7] [µM] | TGI [7] [µM] | GI50 [8] [µM] | TGI [8] [µM] | TGI [9] [µM] | TGI [10] [µM] | GI50 [9] [µM] | GI50 [10] [µM]
1 | CCCCCCCCCCCCCC[n+]1ccc(C)cc1 | 0.345 | 1.25 | 1.34 | 3.7 | 0.708 | 2.04 | 0.638 | 2.16 | 0.309 | 3.73 | 2.39 | 8.8 | 1.56 | 4.11 | 1.8 | 5.56 | – | – | – | –
2 | CC(C)c1ccccc1SCc1cc(=O)cc(CSc2ccccc2C(C)C)o1 | – | 49.5 | – | 49.5 | – | 84.5 | – | 32.8 | – | > 100 | – | 32.9 | – | – | – | 48 | 44.4 | 54.9 | – | –
3 | C=C1C(=O)OC2CC(C)C3C4OC4C(O)C3(C)C(O)C12 (stereo unspecified) | – | – | – | – | – | 75.8 | – | – | – | 91.6 | – | – | – | 72 | – | 98.8 | 67.1 | 91.6 | – | –
4 | CC12CCC(CC1)C(C)(C)O2 | – | – | – | – | – | 97.7 | – | – | 37.9 | 183 | – | – | – | 71.7 | – | 223 | 122 | 133 | – | –
5 | O=C1/C(=C/c2ccc(O)cc2)COc2ccc(O)c(O)c21 | 3.43 | 20.1 | – | – | 3.61 | 13.1 | 2.03 | 4.91 | 0.649 | > 100 | 3.12 | > 100 | – | – | – | – | 4.58 | > 100 | 1.76 | 3.51
6 | CSc1nc(N)c2c(-c3ccccc3)c3c(nc2n1)CCCC3 | – | > 100 | – | > 100 | – | – | – | > 100 | – | > 100 | – | 48.5 | – | > 100 | – | > 100 | > 100 | > 100 | – | –
